Experiments:
Experiment in all cases: relative viability (nuclei count vs DMSO), 5 days (fraction); higher = more cells survive
[1] = compound: CC1=C(N=C(N=C1N)[C@H](CC(=O)N)NC[C@@H](C(=O)N)N)C(=O)N[C@@H]([C@H](C2=CN=CN2)OC3C(C(C(C(O3)CO)O)O)OC4C(C(C(C(O4)CO)O)OC(=O)N)O)C(=O)N[C@H](C)[C@H]([C@H](C)C(=O)N[C@@H]([C@@H](C)O)C(=O)NCCC5=NC(=CS5)C6=NC(=CS6)C(=O)NCCC[S+](C)C)O [Bleomycin] + CC(C)C[C@H](NC(=O)[C@H](Cc1ccccc1)NC(=O)c1cnccn1)B(O)O [Bortezomib] (partner 0.002 µM); settings: main component drawn
Method in brief: (§1)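 One day after seeding in 1536-well plates, lung cancer cell lines were dosed by pin tool. Dosing was either single-drug or a fixed anchor-drug dose plus five library-drug doses (not always all listed) in √10 steps. After 5 days, nuclei were stained in one fix-and-stain step and counted on 4× images, and relative viability is the nuclei count of treated wells over that of vehicle wells, given as the median of duplicate plates.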

[2] = compound: CC1=C(N=C(N=C1N)[C@H](CC(=O)N)NC[C@@H](C(=O)N)N)C(=O)N[C@@H]([C@H](C2=CN=CN2)OC3C(C(C(C(O3)CO)O)O)OC4C(C(C(C(O4)CO)O)OC(=O)N)O)C(=O)N[C@H](C)[C@H]([C@H](C)C(=O)N[C@@H]([C@@H](C)O)C(=O)NCCC5=NC(=CS5)C6=NC(=CS6)C(=O)NCCC[S+](C)C)O [Bleomycin] + Cc1nc(Nc2ncc(C(=O)Nc3c(C)cccc3Cl)s2)cc(N2CCN(CCO)CC2)n1 [Dasatinib] (partner 0.075 µM); settings: main component drawn
Method in brief: as §1

[3] = compound: COc1cc([C@@H]2c3cc4c(cc3[C@@H](O[C@@H]3O[C@@H]5CO[C@@H](C)O[C@H]5[C@H](O)[C@H]3O)[C@H]3COC(=O)[C@H]23)OCO4)cc(OC)c1O [Etoposide] + CC(=O)Nc1cccc(-n2c(=O)n(C3CC3)c(=O)c3c(Nc4ccc(I)cc4F)n(C)c(=O)c(C)c32)c1 [Trametinib] (partner 0.02 µM)
Method in brief: as §1

[4] = compound: COc1cc([C@@H]2c3cc4c(cc3[C@@H](O[C@@H]3O[C@@H]5CO[C@@H](C)O[C@H]5[C@H](O)[C@H]3O)[C@H]3COC(=O)[C@H]23)OCO4)cc(OC)c1O [Etoposide] + COc1cc2c(Oc3ccc(NC(=O)C4(C(=O)Nc5ccc(F)cc5)CC4)cc3F)ccnc2cc1OCCCN1CCOCC1 [Foretinib] (partner 0.25 µM)
Method in brief: as §1

Row | Cell Line | relative viability ([1]; first compound 0.01 µM) | relative viability ([1]; first compound 0.03162 µM) | relative viability ([1]; first compound 0.1 µM) | relative viability ([1]; first compound 0.3162 µM) | relative viability ([1]; first compound 1 µM) | relative viability ([2]; first compound 0.01 µM) | relative viability ([2]; first compound 0.03162 µM) | relative viability ([2]; first compound 0.1 µM) | relative viability ([2]; first compound 0.3162 µM) | relative viability ([2]; first compound 1 µM) | relative viability ([3]; first compound 0.01 µM) | relative viability ([3]; first compound 0.03162 µM) | relative viability ([3]; first compound 0.1 µM) | relative viability ([3]; first compound 0.3162 µM) | relative viability ([3]; first compound 1 µM) | relative viability ([4]; first compound 0.01 µM) | relative viability ([4]; first compound 0.03162 µM) | relative viability ([4]; first compound 0.1 µM) | relative viability ([4]; first compound 0.3162 µM) | relative viability ([4]; first compound 1 µM)
1 | H3255 | 0.664 | 0.925 | 0.666 | 0.283 | 0.244 | 0.356 | 0.448 | 0.426 | 0.332 | 0.327 | 0.578 | 0.707 | 0.411 | 0.57 | 0.347 | 0.974 | 0.897 | 0.603 | 0.674 | 0.457
2 | NCI-H1437 | 0.519 | 0.44 | 0.452 | 0.121 | 0.303 | 0.388 | 0.422 | 0.39 | 0.164 | 0.23 | 0.417 | 0.551 | 0.361 | 0.412 | 0.298 | 1.21 | 1.2 | 1.27 | 0.943 | 0.44
3 | LU99A | 0.763 | 0.83 | 0.602 | 0.167 | 0.128 | 0.366 | 0.505 | 0.367 | 0.205 | 0.125 | 0.493 | 0.672 | 0.391 | 0.312 | 0.206 | 0.911 | 0.966 | 0.43 | 0.466 | 0.287
4 | HCC-827 | 0.948 | 0.918 | 0.9 | 0.464 | 0.357 | 0.228 | 0.24 | 0.338 | 0.245 | 0.225 | 0.497 | 0.525 | 0.315 | 0.23 | 0.187 | 0.996 | 1.01 | 0.915 | 0.284 | 0.177
5 | HCC-366 | 0.736 | 0.34 | 0.293 | 0.0464 | 0.0446 | 0.504 | 0.412 | 0.444 | 0.0996 | 0.0443 | 0.338 | 0.36 | 0.249 | 0.0581 | 0.0512 | 0.961 | 0.848 | 0.442 | 0.12 | 0.0524
6 | BEN | 0.909 | 0.868 | 0.967 | 0.578 | 0.609 | 0.327 | 0.342 | 0.341 | 0.273 | 0.249 | 0.919 | 1.01 |  | 1.05 | 0.852 | 0.564 | 0.884 |  | 0.657 | 0.725
7 | NCI-H2347 | 0.915 | 1.05 | 0.889 | 0.7 | 0.476 | 0.258 | 0.295 | 0.266 | 0.169 | 0.23 | 0.25 | 0.301 | 0.25 | 0.269 | 0.278 | 0.844 | 0.981 | 0.515 | 0.59 | 0.387
8 | 201T | 1.12 | 1 | 1.01 | 0.921 | 0.827 | 0.527 | 0.529 | 0.546 | 0.444 | 0.463 | 0.73 | 0.76 | 0.707 | 0.602 | 0.544 | 0.981 | 0.931 | 1.1 | 0.778 | 0.425
9 | NCI-H520 | 0.596 | 0.33 | 0.708 | 0.142 | 0.293 | 0.222 | 0.217 | 0.234 | 0.198 | 0.154 | 0.597 | 0.645 | 0.414 | 0.617 | 0.49 | 0.825 | 0.93 | 0.784 | 0.67 | 0.554
10 | NCI-H727 | 0.796 | 0.853 | 0.775 | 0.303 | 0.37 | 0.466 | 0.345 | 0.325 |  | 0.293 | 0.395 | 0.43 | 0.378 | 0.338 | 0.355 | 0.988 | 0.912 |  | 0.732 | 0.606
11 | HCC-15 | 0.914 | 1.01 | 0.815 | 0.299 | 0.318 | 0.613 | 0.559 | 0.515 | 0.0886 | 0.177 | 0.35 | 0.469 | 0.34 | 0.287 | 0.192 | 1.07 | 1.02 | 1.02 | 0.314 | 0.157
12 | LCLC-103H | 1.07 | 1.12 | 1.1 | 0.556 | 0.467 | 0.382 | 0.448 | 0.418 | 0.316 | 0.214 | 0.607 | 0.748 | 0.742 | 0.64 | 0.582 | 0.592 | 0.597 | 0.77 | 0.636 | 0.502
13 | NCI-H460 | 0.331 | 0.286 | 0.103 | 0.0317 | 0.0212 | 0.362 | 0.318 | 0.244 | 0.0443 | 0.037 | 0.173 | 0.14 | 0.0869 | 0.0497 | 0.021 | 0.871 | 0.907 | 0.809 | 0.142 | 0.0668
14 | EPLC-272H | 0.863 | 0.883 | 0.718 | 0.174 | 0.158 | 0.35 | 0.36 | 0.272 | 0.149 | 0.0954 | 0.33 | 0.284 | 0.254 | 0.267 | 0.267 | 0.626 | 0.722 | 0.552 | 0.61 | 0.255

Source: the supplement of paper PMC10307832
